Laboratory results published in patent US12398154B2, “Azaquinazoline pan-KRas inhibitors” (Mirati Therapeutics, Inc., priority 2020, dated 2025).

What was measured:
pERK in H460 cells = test: Inhibition of KRas phosphorylation of ERK (Cisbio HTRF pERK assay); conditions: Homo sapiens, NCI-H460, read-out: Inhibition (HTRF IC50) of KRas-mediated Phosphorylation of ERK, H460
KRas WT = KRas WT (Homo sapiens, UniProt P01116); test: biochemical;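 further: binding to KRas read as TR-FRET displacement after a one-hour room-temperature incubation, IC50 derived from percent-of-control values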
KRas WT, sequence (P01116 1-169 isoform P01116-2): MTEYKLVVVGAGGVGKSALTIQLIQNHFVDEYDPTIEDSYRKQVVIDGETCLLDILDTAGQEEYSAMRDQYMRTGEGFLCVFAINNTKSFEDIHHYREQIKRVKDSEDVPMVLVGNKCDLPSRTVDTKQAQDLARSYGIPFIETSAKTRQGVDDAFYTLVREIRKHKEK
Description: (§1) The ability of a compound to bind to KRas was measured using a TR-FRET displacement assay. […] After a 60-minute incubation at room temperature, the reaction was measured using a BMG LABTECH CLARIO star Plus via TR-FRET. […] The POC values were fit to a 4-parameter IC50 equation and the IC50 value reported.

pERK in PSN1 cells = test: Inhibition of KRas phosphorylation of ERK (Cisbio HTRF pERK assay); conditions: Homo sapiens, PSN1, 3 h, read-out: Inhibition (HTRF IC50) of KRas-mediated Phosphorylation of ERK, PSN1
KRas G12S = KRas G12S (Homo sapiens, UniProt P01116, G12S); test: biochemical;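 further: TR-FRET displacement binding to KRas, read after one hour incubation at room temperature, IC50 from four-parameter fit of percent of control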
KRas G12S, sequence (P01116 1-169 isoform P01116-2 G12S): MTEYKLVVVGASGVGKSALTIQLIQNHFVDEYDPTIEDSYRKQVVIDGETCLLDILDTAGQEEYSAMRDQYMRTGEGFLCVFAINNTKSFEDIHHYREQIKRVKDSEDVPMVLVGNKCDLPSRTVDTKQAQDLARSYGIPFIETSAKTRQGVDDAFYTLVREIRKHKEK
Description: as §1

pERK in MKN1 cells = test: Inhibition of KRas phosphorylation of ERK (Cisbio HTRF pERK assay); conditions: Homo sapiens, MKN-1, 3 h, read-out: Inhibition (HTRF IC50) of KRas-mediated Phosphorylation of ERK, MKN1
pERK in H358 cells = test: as above; conditions: Homo sapiens, NCI-H358, read-out: Inhibition (HTRF IC50) of KRas-mediated Phosphorylation of ERK, H358
Description: (§2) To harvest cells from flask using 0.05% Trypsin/EDTA solution. Add 10 mL of media to stop trypsinizing. Pipette the cells into a conical bottom 50 mL centrifuge tube and centrifuge 5 min×1000 rpm. • 2. Re-suspend the cell pellet in media, take a cell count, and then adjust the cell density using fresh media. • 3. Seed 6,000 cells into cell culture plate with 50 μL media. […] Incubate cell plate overnight in a 37° C., 5% CO2 incubator. • Compound titrations • 1. Use Tecan to complete the compound addition. Compounds start from 10 uM top, 3-fold dilution, and 10 doses. The final DMSO concentration is 0.8%. Dispensed 0.2 uM Trametinib as Min control. • 2. Incubate cell plate for 3 hrs in the incubator. • Detection with cisbio pERK HTRF kit • 1. […] At the end of the compound treatment, flick-off the media. • 3. Add 35 μL of lysis buffer per well using a Multidrop Combi. Then place on a plate agitator shaking at 300 rpm at 4° C. for 40 mins. • 4. Make up the HTRF antibody buffer. For each assay plate, mix 50 μL of d2-conjugate antibody with 950 μL of detection buffer. Similarly, mix 50 μL of Cryptate antibody with 950 μL of detection buffer. Then mix the two diluted antibodies together. • 5. Dispense 3.4 μL the antibody buffer to wells of an empty assay plate. Seal the plate and centrifuge plate 30 sec×1000 rpm. • 6. At the end of the 4° C. lysis, centrifuge the lysate plates 3 mins×1500 rpm. • 7. Use the Bravo to transfer 13.6 μL of lysate from cell culture plate to assay plate.
(§3) Then incubate assay plate for 2 hrs at room temperature. […] At the end of incubation, read plate on the Envision after centrifuging plate 30 sec× • 1000 rpm.

KRas G12R = KRas G12R (Homo sapiens, UniProt P01116, G12R); test: biochemical;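 further: TR-FRET displacement assay of compound binding to KRas, read after one hour at room temperature, potency from a four-parameter fit of percent-of-control values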
KRas G12R, sequence (P01116 1-169 isoform P01116-2 G12R): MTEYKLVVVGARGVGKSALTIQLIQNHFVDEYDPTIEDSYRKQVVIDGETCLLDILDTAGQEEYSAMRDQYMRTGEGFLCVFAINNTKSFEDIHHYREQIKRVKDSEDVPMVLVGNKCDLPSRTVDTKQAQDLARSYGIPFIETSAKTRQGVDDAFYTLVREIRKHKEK
Description: as §1

pERK in A549 cells = test: Inhibition of KRas phosphorylation of ERK (Cisbio HTRF pERK assay); conditions: Homo sapiens, A549, read-out: Inhibition (HTRF IC50) of KRas-mediated Phosphorylation of ERK, A549
pERK in HCT116 cells = test: as above; conditions: Homo sapiens, HCT-116, read-out: Inhibition (HTRF IC50) of KRas-mediated Phosphorylation of ERK, HCT116
KRas G12V = KRas G12V (Homo sapiens, UniProt P01116, G12V); test: biochemical;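 further: KRas binding measured by TR-FRET displacement at room temperature, IC50 fitted from percent of control values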
KRas G12V, sequence (P01116 1-169 isoform P01116-2 G12V): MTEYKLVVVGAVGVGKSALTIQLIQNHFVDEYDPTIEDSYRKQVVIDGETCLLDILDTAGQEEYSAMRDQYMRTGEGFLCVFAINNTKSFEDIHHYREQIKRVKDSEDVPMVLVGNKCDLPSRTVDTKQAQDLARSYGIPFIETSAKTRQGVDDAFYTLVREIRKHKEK
Description: as §1

pERK in H727 cells = test: Inhibition of KRas phosphorylation of ERK (Cisbio HTRF pERK assay); conditions: Homo sapiens, NCI-H727, read-out: Inhibition (HTRF IC50) of KRas-mediated Phosphorylation of ERK, H727
KRas G12C = KRas G12C (Homo sapiens, UniProt P01116, G12C); test: biochemical;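 further: binding to KRas assessed by TR-FRET displacement after one hour incubation at room temperature, potency fitted from percent-of-control values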
KRas G12C, sequence (P01116 1-169 isoform P01116-2 G12C): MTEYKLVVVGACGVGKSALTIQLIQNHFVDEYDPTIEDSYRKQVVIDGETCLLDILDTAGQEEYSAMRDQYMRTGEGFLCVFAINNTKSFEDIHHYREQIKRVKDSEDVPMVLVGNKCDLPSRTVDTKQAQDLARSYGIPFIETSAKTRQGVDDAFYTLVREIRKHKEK
Description: as §1

KRas G12D = KRas G12D (Homo sapiens, UniProt P01116, G12D); test: biochemical;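 further: TR-FRET displacement binding assay on KRas, read after a one-hour incubation at room temperature, IC50 fitted from percent-of-control values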
KRas G12D, sequence (P01116 1-169 isoform P01116-2 G12D): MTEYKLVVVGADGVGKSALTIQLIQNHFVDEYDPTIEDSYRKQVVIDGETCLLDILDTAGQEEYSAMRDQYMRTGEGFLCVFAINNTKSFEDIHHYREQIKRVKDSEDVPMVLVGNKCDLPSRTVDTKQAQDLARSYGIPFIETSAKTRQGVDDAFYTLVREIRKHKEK
Description: as §1

KRas G12A = KRas G12A (Homo sapiens, UniProt P01116, G12A); test: biochemical;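 further: binding to KRas measured by TR-FRET displacement after one hour at room temperature, IC50 from a four-parameter fit of percent-of-control values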
KRas G12A, sequence (P01116 1-169 isoform P01116-2 G12A): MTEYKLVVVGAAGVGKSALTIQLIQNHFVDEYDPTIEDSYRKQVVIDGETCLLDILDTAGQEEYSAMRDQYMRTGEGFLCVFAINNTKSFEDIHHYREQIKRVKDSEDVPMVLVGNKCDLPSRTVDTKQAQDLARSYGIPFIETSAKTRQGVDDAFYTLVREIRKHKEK
Description: as §1

pERK in ASPC1 cells = test: Inhibition of KRas phosphorylation of ERK (Cisbio HTRF pERK assay); conditions: Homo sapiens, ASPC1, read-out: Inhibition (HTRF IC50) of KRas-mediated Phosphorylation of ERK, AsPC-1
Description: as §2, §3

IC50 (pERK in H460 cells) [µM]	IC50 (KRas WT) [µM]	IC50 (pERK in PSN1 cells) [µM]	IC50 (KRas G12S) [µM]	IC50 (pERK in MKN1 cells) [µM]	IC50 (pERK in H358 cells) [µM]	IC50 (KRas G12R) [µM]	IC50 (pERK in A549 cells) [µM]	IC50 (pERK in HCT116 cells) [µM]	IC50 (KRas G12V) [µM]	IC50 (pERK in H727 cells) [µM]	IC50 (KRas G12C) [µM]	IC50 (KRas G12D) [µM]	IC50 (KRas G12A) [µM]	IC50 (pERK in ASPC1 cells) [µM]	Structure (SMILES)
0.038	≤ 0.002	2.12	≤ 0.002	0.007	0.004	≤ 0.002	0.038	0.042	≤ 0.002	0.028	≤ 0.002	≤ 0.002	≤ 0.002	0.013	CCc1c(F)ccc2cc(O)cc(-c3ncc4c(N5CCC[C@@](C)(O)C5)nc(OC[C@]56CCCN5[C@H](COC(=O)N(C)C)CC6)nc4c3F)c12 [Example 313, ((3S,7aR)-7a-(((7-(8-ethyl-7-fluoro-3-hydroxynaphthalen-1-yl)-8-fluoro-4-((R)-3-hydroxy-3-methylpiperidin-1-yl)pyrido[4,3-d]pyrimidin-2-yl)oxy)methyl)hexahydro-1H-pyrrolizin-3-yl)methyl dimethylcarbamate]
0.014	≤ 0.002	0.407	≤ 0.002	0.003	0.002	≤ 0.002	0.019	0.021	≤ 0.002	0.021	≤ 0.002	≤ 0.002	≤ 0.002	0.009	CCc1c(F)ccc2cc(O)cc(-c3ncc4c(N5CCC[C@@](C)(O)C5)nc(OC[C@@]56CCCN5[C@H](COC(=O)N(C)C)CC6)nc4c3F)c12 [Example 314, ((3S,7aS)-7a-(((7-(8-ethyl-7-fluoro-3-hydroxynaphthalen-1-yl)-8-fluoro-4-((R)-3-hydroxy-3-methylpiperidin-1-yl)pyrido[4,3-d]pyrimidin-2-yl)oxy)methyl)hexahydro-1H-pyrrolizin-3-yl)methyl dimethylcarbamate]
0.287	≤ 0.002	3.93	≤ 0.002	0.02	0.985	≤ 0.002	0.197	0.098	≤ 0.002	0.046	≤ 0.002	≤ 0.002	≤ 0.002	0.04	CCc1c(F)ccc2cc(O)cc(-c3ncc4c(N5CCCCCC5)nc(OC[C@@]56CCCN5C[C@H](F)C6)nc4c3F)c12 [Example 317, 4-(4-(azepan-1-yl)-8-fluoro-2-(((2R,7aS)-2-fluorohexahydro-1H-pyrrolizin-7a-yl)methoxy)pyrido[4,3-d]pyrimidin-7-yl)-5-ethyl-6-fluoronaphthalen-2-ol]
0.071	≤ 0.002	7.76	≤ 0.002	0.003	0.007	≤ 0.002	0.099	0.039	≤ 0.002	0.03	≤ 0.002	≤ 0.002	≤ 0.002	0.016	CCc1c(F)ccc2cc(O)cc(-c3ncc4c(N5CCOC[C@@](C)(O)C5)nc(OCC5(CN6CCCC6)CC5)nc4c3F)c12 [Example 321, (S)-4-(7-(8-ethyl-7-fluoro-3-hydroxynaphthalen-1-yl)-8-fluoro-2-((1-(pyrrolidin-1-ylmethyl)cyclopropyl)methoxy)pyrido[4,3-d]pyrimidin-4-yl)-6-methyl-1,4-oxazepan-6-ol]
0.052	≤ 0.002	0.305	–	0.008	0.011	≤ 0.002	0.084	0.057	≤ 0.002	0.061	≤ 0.002	≤ 0.002	–	0.029	CCc1c(F)ccc2cc(O)cc(-c3ncc4c(N5CCCC6(CNS(=O)(=O)N6)C5)nc(OC[C@@]56CCCN5C[C@H](F)C6)nc4c3F)c12 (stereo partly drawn) [Example 330, 7-(7-(8-ethyl-7-fluoro-3-hydroxynaphthalen-1-yl)-8-fluoro-2-(((2R,7aS)-2-fluorohexahydro-1H-pyrrolizin-7a-yl)methoxy)pyrido[4,3-d]pyrimidin-4-yl)-2-thia-1,3,7-triazaspiro[4.5]decane 2,2-dioxide]
0.053	–	4.83	–	0.008	0.002	≤ 0.002	0.011	0.081	≤ 0.002	0.006	–	≤ 0.002	–	0.004	CCc1c(F)ccc2cc(O)cc(-c3ncc4c(N5CCCn6nc(C(=O)N(C)C)c(Cl)c6C5)nc(OC[C@@]56CCCN5C[C@H](F)C6)nc4c3F)c12 [Example 504, 3-chloro-5-(7-(8-ethyl-7-fluoro-3-hydroxynaphthalen-1-yl)-8-fluoro-2-(((2R,7aS)-2-fluorohexahydro-1H-pyrrolizin-7a-yl)methoxy)pyrido[4,3-d]pyrimidin-4-yl)-N,N-dimethyl-5,6,7,8-tetrahydro-4H-pyrazolo[1,5-a][1,4]diazepine-2-carboxamide]
0.179	–	1.95	–	0.007	0.04	0.004	0.345	0.341	≤ 0.002	0.262	–	≤ 0.002	–	0.025	CCc1c(F)ccc2cc(O)cc(-c3ncc4c(N5CCCC6(CCS(=O)(=O)C6)C5)nc(OC[C@@]56CCCN5C[C@H](F)C6)nc4c3F)c12 (stereo partly drawn) [Example 507, 7-(7-(8-ethyl-7-fluoro-3-hydroxynaphthalen-1-yl)-8-fluoro-2-(((2R,7aS)-2-fluorohexahydro-1H-pyrrolizin-7a-yl)methoxy)pyrido[4,3-d]pyrimidin-4-yl)-2-thia-7-azaspiro[4.5]decane 2,2-dioxide]
0.027	–	1.04	–	0.002	0.006	≤ 0.002	0.023	0.045	≤ 0.002	0.025	–	≤ 0.002	–	0.008	CCc1c(F)ccc2cc(O)cc(-c3ncc4c(N5CCC[C@@](C)(O)C5)nc(OC[C@@]56CCCN5[C@H](COC(=O)N5CCOCC5)CC6)nc4c3F)c12 [Example 511, ((3S,7aS)-7a-(((7-(8-ethyl-7-fluoro-3-hydroxynaphthalen-1-yl)-8-fluoro-4-((R)-3-hydroxy-3-methylpiperidin-1-yl)pyrido[4,3-d]pyrimidin-2-yl)oxy)methyl)hexahydro-1H-pyrrolizin-3-yl)methyl morpholine-4-carboxylate]
0.13	–	2.83	–	0.014	0.053	0.008	0.068	0.291	0.005	0.08	–	0.005	–	0.055	CCc1c(F)ccc2cc(O)cc(-c3ncc4c(N5CCC[C@@](C)(O)C5)nc(OC[C@@]56CCCN5[C@@H](COC(=O)N(C)C)CC6)nc4c3F)c12 [Example 512, ((3R,7aS)-7a-(((7-(8-ethyl-7-fluoro-3-hydroxynaphthalen-1-yl)-8-fluoro-4-((R)-3-hydroxy-3-methylpiperidin-1-yl)pyrido[4,3-d]pyrimidin-2-yl)oxy)methyl)hexahydro-1H-pyrrolizin-3-yl)methyl dimethylcarbamate]
